Here are results for 14 compounds from PubChem BioAssay (NCI).

Among the test systems are KM12 colon; UACC-257 melanoma; RPMI-8226 leukemia; HL-60(TB) leukemia; RXF 393 renal; SF-539 CNS; SF-295 CNS; SNB-19 CNS; NCI/ADR-RES ovarian; BT-549 breast.
Holding throughout (assay): inhibition of tumour cell growth, NCI panel, 48 h

SMILES strings stand for the structures.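 Briefly, cells in 96-well plates were exposed to five compound concentrations for 48 h, and endpoints were estimated by linear interpolation. The concentration for 50% growth inhibition is given as GI50. TGI is the concentration that stops growth completely.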 Some results are limits rather than exact numbers.

On to `C1C[OH+]CCNCC[OH+]CC[OH+]CCN1.N.[Cl-].[Pt+4]`, for which the GI50 is 29.5 µM in the assay with KM12 colon; 78.8 µM in the assay with UACC-257 melanoma; 27.5 µM in the assay with RPMI-8226 leukemia; over 100 µM in the assay on HL-60(TB) leukemia; 22.8 µM in the assay on RXF 393 renal; over 100 µM in the assay on SF-539 CNS. Further, the GI50 was 49 µM in the assay on SF-295 CNS and over 100 µM with SNB-19 CNS. Also, the TGI was over 100 µM in the assay on KM12 colon; over 100 µM with UACC-257 melanoma; over 100 µM in the assay on RPMI-8226 leukemia; over 100 µM in the assay on HL-60(TB) leukemia; 90.3 µM in the assay on RXF 393 renal; over 100 µM in the assay on SF-539 CNS. For the same compound, the TGI in the assay on SF-295 CNS and in the assay with SNB-19 CNS was over 100 µM throughout.

For `CO/C=C(\Br)c1ccc2c(c1)OCO2`, the TGI with KM12 colon, in the assay on UACC-257 melanoma, in the assay on HL-60(TB) leukemia, in the assay with RXF 393 renal, in the assay on SF-539 CNS and in the assay with SF-295 CNS was over 100 µM throughout. This compound also showed a TGI in the assay with SNB-19 CNS of over 100 µM.

Take `C[C@]12CCc3nonc3C1CC[C@@H]1C2CC[C@@]2(C)C1CC[C@@H]2O` (stereo partly drawn): the TGI in the assay with KM12 colon, in the assay on UACC-257 melanoma, with RPMI-8226 leukemia, in the assay on HL-60(TB) leukemia, in the assay on RXF 393 renal and in the assay with SF-539 CNS was over 100 µM each time. The TGI in the assay with SF-295 CNS and in the assay on SNB-19 CNS was over 100 µM each time.

Consider `COc1cc2c(/C=C3/C(=O)Nc4ccc(O)cc43)c(Cl)n(Cc3cc(OC)c(OC)c(OC)c3)c2cc1C`, for which the GI50 in the assay with KM12 colon was 1.63 µM; in the assay on UACC-257 melanoma it was 3.43 µM; with RPMI-8226 leukemia it was 2.12 µM; in the assay on HL-60(TB) leukemia, 1.97 µM; with RXF 393 renal, 1.37 µM; with NCI/ADR-RES ovarian, 3.41 µM. Further, the GI50 is 2.24 µM with SF-539 CNS, 0.795 µM in the assay with SF-295 CNS and 3.32 µM in the assay with SNB-19 CNS. For the same compound, the TGI in the assay on KM12 colon is over 30.5 µM; in the assay on UACC-257 melanoma, over 47.6 µM; with RPMI-8226 leukemia, over 100 µM; in the assay with HL-60(TB) leukemia, 10.3 µM; in the assay on RXF 393 renal, 6.4 µM; in the assay on NCI/ADR-RES ovarian it was over 100 µM. Besides, the values for the TGI in the assay with SF-539 CNS, in the assay with SF-295 CNS and in the assay on SNB-19 CNS were over 31.1 µM, 5.67 µM and over 100 µM, respectively.

As for `OCCN(CCO)c1nc(N2CCCCC2)c2nc(N(CCO)CCO)nc(N3CCCCC3)c2n1`, the TGI with KM12 colon was over 100 µM; in the assay with UACC-257 melanoma, over 100 µM; in the assay with HL-60(TB) leukemia it was 36.5 µM; in the assay on NCI/ADR-RES ovarian it was over 100 µM.

For the compound `COc1ccc2c(c1)C(=O)c1c-2c(N2CCN(C(=O)CCNCCNCCN)CC2)nc2ccccc12`, the GI50 in the assay with KM12 colon is 4.94 µM; with UACC-257 melanoma it was 3.24 µM; in the assay with RPMI-8226 leukemia, 2.93 µM; with HL-60(TB) leukemia it was 3.03 µM; in the assay with SF-295 CNS it was 20.8 µM; in the assay with SNB-19 CNS, 15 µM. The TGI in the assay on KM12 colon worked out at 62.2 µM; with UACC-257 melanoma, 9.33 µM; with RPMI-8226 leukemia, 9.71 µM; in the assay with HL-60(TB) leukemia, 6.83 µM; in the assay on SF-295 CNS, 44.7 µM; with SNB-19 CNS, 39.8 µM.

Take `CCN(CCO)CCCC(C)Nc1ccnc2cc(Cl)ccc12` (stereo not drawn): the GI50 in the assay with KM12 colon is over 100 µM; with UACC-257 melanoma it was over 100 µM; in the assay on BT-549 breast, over 100 µM; in the assay with HL-60(TB) leukemia, 13.3 µM; in the assay with RXF 393 renal it was 73.8 µM; in the assay with SF-539 CNS it was 8.63 µM. Besides, the GI50 in the assay on SF-295 CNS and in the assay on SNB-19 CNS was over 100 µM throughout. For the same compound, the TGI in the assay on KM12 colon is over 100 µM; in the assay with UACC-257 melanoma, over 100 µM; in the assay with BT-549 breast, over 100 µM; in the assay with HL-60(TB) leukemia it was 47.6 µM; in the assay on RXF 393 renal it was over 100 µM; with SF-539 CNS, over 100 µM. In addition, the TGI with SF-295 CNS and in the assay with SNB-19 CNS was over 100 µM each time.

Turning to `CCCCCCCC(=O)OCC1OC(n2cc(F)c(=O)[nH]c2=O)C(N)C(O)C1O` (stereo not drawn), the TGI in the assay with KM12 colon, in the assay on UACC-257 melanoma, in the assay on RPMI-8226 leukemia, in the assay on HL-60(TB) leukemia, in the assay on RXF 393 renal and in the assay with SF-539 CNS was over 100 µM throughout. Moreover, the TGI in the assay on SF-295 CNS and in the assay with SNB-19 CNS was over 100 µM throughout.

Turning to `N#CC1(N2CCCC2)CCC2(CC1)OCCO2`, the TGI in the assay with KM12 colon, in the assay on UACC-257 melanoma, in the assay with RPMI-8226 leukemia, with HL-60(TB) leukemia, in the assay with RXF 393 renal and in the assay on SF-539 CNS was over 100 µM in each case. Moreover, the TGI with SF-295 CNS and in the assay with SNB-19 CNS was over 100 µM in each case.

For `CC(=O)[CH-]C(C)=O.CC(=O)[CH-]C(C)=O.[Cl-].[O]=[V]`, the GI50 in the assay with RXF 393 renal was 10.9 µM; in the assay on SF-539 CNS, 17.5 µM; with SF-295 CNS, 12.1 µM; with SNB-19 CNS it was 39.9 µM. The TGI in the assay on RXF 393 renal is 24.6 µM; with SF-539 CNS, 37.5 µM; with SF-295 CNS it was 44.8 µM; in the assay with SNB-19 CNS, over 100 µM.

`CCOC(=O)CNC(=O)OCc1ccccc1`: the TGI in the assay on KM12 colon, with UACC-257 melanoma, in the assay on HL-60(TB) leukemia, in the assay on SF-539 CNS, in the assay with SF-295 CNS and in the assay with SNB-19 CNS was over 100 µM throughout.

Take `COc1cc(/C=C2\NC(=O)C3Cc4c(OC)c(C)c(OC)c(OC)c4C2N3C)c(OC)c(C)c1OC` (stereo not drawn): the TGI with KM12 colon, in the assay on UACC-257 melanoma, in the assay with HL-60(TB) leukemia, in the assay on RXF 393 renal, in the assay on SF-539 CNS and in the assay with SF-295 CNS was over 100 µM each time. Also, the TGI in the assay with SNB-19 CNS was over 100 µM.

With `N#CC(C(=O)CCC(=O)Nc1cccc(C(F)(F)F)c1)c1ccccc1` (stereo not drawn), the TGI in the assay with KM12 colon, in the assay on UACC-257 melanoma, with RPMI-8226 leukemia, in the assay on HL-60(TB) leukemia, in the assay with RXF 393 renal and in the assay on SF-539 CNS was over 100 µM throughout. The TGI in the assay on SF-295 CNS and in the assay on SNB-19 CNS was over 100 µM in each case.

`Cc1ccc(/C=N/NS(=O)(=O)c2ccccc2)cc1C`: the TGI with KM12 colon, with UACC-257 melanoma, in the assay with RPMI-8226 leukemia, with HL-60(TB) leukemia, in the assay on RXF 393 renal and with SF-539 CNS was over 100 µM throughout. Further, the TGI with SF-295 CNS was over 100 µM.
